Test results: article PMC7096398, “Oxytocin Receptors Regulate Social Preference in Zebrafish” (Scientific Reports, 2020)
Entries after “also recorded” stand apart in the source; their conditions may differ.

What was measured:
monkeys = conditions: cited from earlier work
Oxtr = biological target: T1, Oxtr (Danio rerio, UniProt E4W699); assay: Inositol phosphate accumulation assay, antagonism of 1 μM zVP at Oxtr; type: cell-based, zebrafish; conditions: stimulated with zVP
T1 construct: host or cells: HEK293
T1 sequence (E4W699 1-388): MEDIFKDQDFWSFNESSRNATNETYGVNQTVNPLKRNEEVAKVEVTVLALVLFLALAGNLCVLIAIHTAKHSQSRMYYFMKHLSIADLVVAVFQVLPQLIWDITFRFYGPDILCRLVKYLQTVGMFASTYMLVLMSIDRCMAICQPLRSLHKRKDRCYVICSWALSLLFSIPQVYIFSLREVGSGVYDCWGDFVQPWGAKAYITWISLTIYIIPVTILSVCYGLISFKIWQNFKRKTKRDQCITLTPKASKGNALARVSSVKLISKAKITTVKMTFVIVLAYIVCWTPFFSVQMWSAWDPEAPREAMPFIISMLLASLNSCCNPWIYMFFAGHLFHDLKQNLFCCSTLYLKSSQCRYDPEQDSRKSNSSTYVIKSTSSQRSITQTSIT
Description: The receptor constructs were ordered from GeneScript and subcloned into a pcDNA3.1/CT-GFP-TOPO vector. The coding sequences of the GenBank entries NM_001199370.1 (oxtr), NM_001199369.1 (oxtrl), NM_001301114.1 (avpr1aa), and NM_001297676.1 (avpr1ab) were used for synthesis. The stop codons were removed, and an additional […] was added to facilitate hybrid protein expression with GFP in frame from the vector. The GCCACC Kozak sequence was inserted before the start codons. After transformation of the plasmid constructs into TOP10 competent cells (Thermo Fisher Scientific), the Maxiprep (Thermo Fisher Scientific) method was used to amplify the plasmids for transfection.
The Inositol phosphate accumulation assay was performed according to previous descriptions to measure the potency of different ligands for zebrafish different oxytocin related receptors. Each receptor construct was transfected into HEK293 cells using Lipofectamine 2000 (Thermo Fisher Scientific). Myo2-^3H-inositol (PerkinElmer) at 3 μCi/mL was added the day after transfection. […] Samples were mixed with OptiPhase HiSafe (PerkinElmer Waltham, MA, USA) and ^3H radioactivity was measured with a Tri-Carb 2910TR liquid scintillation counter (PerkinElmer Waltham, MA, USA). […]

adult zebrafish = assay: Social preference in adult zebrafish; type: in vivo, zebrafish (Danio rerio)
Description: Adult and larval behavioural testing was performed between 9 AM and 4 PM. All fish were fed prior to and after experiments, and larvae were also given an additional feed at midday. Adult fish were of a 1:1 sex ratio, and focal fish and stimulus fish were size-matched. Adult fish and shoals were filmed using a web camera and Debut Video Capture Software (NCH Software, Greenwood Village, USA), and videos were analysed using EthoVision version 11 (Noldus, Wageningen, the Netherlands).
The experimental setup comprised one large test tank (60 cm × 30 cm), and two smaller side tanks (15 cm × 30 cm) positioned at the short ends of the test tank; see Fig. 4. The test tank (the arena) was divided into five different zones used when tracking the video recordings, see Fig. 4. The zone closest to the stimuli shoal was always designated Zone 1, and the zone furthest away from the shoal was always designated Zone 5. […] All tanks were visually isolated from each other during the acclimation period of 10 minutes.
A stimulus shoal of eight zebrafish, with a 1:1 sex ratio, was placed in one of the side tanks, while the opposite side tank remained empty. Focal fish and shoal fish were selected to be of similar size in order not to evoke adverse reactions, such as anxiety or aggression. The experiments were thoroughly randomized between treatment groups for time of day and shoal used. The stimulus fish had been habituated to the room and aquarium for 24 hours prior to the start of the experiments. Two shoals were used as stimulus shoals throughout the experiment. The side for the stimulus shoal was alternated in order to avoid any potential place preference of the focal fish. The reasons for using two shoals for all focal fish were to decrease the behavioural variation in focal fish that may be caused by inter-shoal variations, to decrease the stress in stimulus fish caused by netting and transferring them between tanks that may be transferred to the focal fish, and to limit the number of fish used according to the 3 R principles. There were no statistical significant effects of day of testing (One-way ANOVA; p > 0.7), time of testing (One-way ANOVA; p > 0.5), or the identity of the stimulus shoal (shoal 1 versus shoal 2; un-paired t-test; p > 0.1) on the total time the focal fish spent in Zone 1 (closest to the shoal) during the 15 minutes test time.
At 24 hours prior to the experiment, zebrafish were weighed, placed into separate holding tanks, and brought to the experimental room in order to acclimatise. The following day fish were intraperitoneally injected with vehicle Ringer’s solution (13 females and 8 males), or the antagonist (11 females and 10 males). The Ringer’s solution recipe was retrieved from the Zebrafish Information Network (ZFIN, University of Oregon, Eugene, OR, USA).
Intraperitoneal injections were conducted using a 1 mL U-100 BD MicroFine™ Insulin Syringe (Becton Dickinson France S.A.S., France). Post injection, animals were placed into their holding tanks for one hour to recover. […] Following this, focal fish were individually placed in the middle of the test tank and left to freely move around for ten minutes (acclimation period) before visual partitions were removed, which initiated the start of the test period (15 minutes).
All data for the social preference and novel tank diving experiments in adults were extracted as processed means per minute from EthoVision. For the shoaling experiments, raw data was exported from EthoVision, and then post-processed by an in-house script written in Python 3.4, in order to compute IFD, NND, and FND as described elsewhere. For timelines, repeated measures analysis of variance (RM-ANOVA) was used. For pairwise comparisons of total means between groups, Student’s T-tests were used.

## Cc1ccccc1N1CCN(S(=O)(=O)C[C@]23CC[C@H](C[C@@H]2NC(=O)[C@@H](N)CCS(C)(=O)=O)C3(C)C)CC1 [L-368,899]
monkeys
  Behavioural effects one hour after treatment: robust behavioural effects
Oxtr
  Antagonism at Oxtr, in words: able to block zVP activation; also recorded: specifically inhibited; also recorded: potently antagonised
Adult zebrafish; 100 µg per gram fish i.p.
  Social preference in adults, in words: decreased social preference; also recorded: inhibits social preference
Adult zebrafish; 100 µg per gram fish i.p., listed as antagonist
  Social preference in adults, in words: did not completely abolish social preference
Adult zebrafish; 15 min test, 100 µg per gram fish i.p.
  Time in all the other zones vs vehicle: significantly more time
Adult zebrafish; 15 min test, 100 µg per gram fish i.p., t(39) = 3.339, p = 0.0016
  Time in Zone 1 (closest to the shoal) vs vehicle: significantly less time
Adult zebrafish; 15 min test, F(1,39) = 10.79, p = 0.0022
  Distance from shoal vs vehicle: significantly further away
Adult zebrafish; adult social preference, 100 µg per gram fish i.p., 1 h before test, mean ± SEM, vehicle 11.0 ± 1.8
  Social behaviour: Distance to shoal: 19.7 ± 1.9 cm
Adult zebrafish; adult social preference, 100 µg per gram fish i.p., 1 h before test, mean ± SEM, vehicle 45.9 ± 2.3
  Social behaviour: Social zone duration: 34.5 ± 2.4 s/min
Adult zebrafish; adult social preference, 100 µg per gram fish i.p., 1 h before test, mean ± SEM, vehicle 528 ± 19, p = 0.25
  Locomotion: Distance: 496 ± 20 cm/min
Adult zebrafish; average distance p = 0.25, average velocity p = 0.32
  Activity parameters vs vehicle, social preference test: no significant differences
Adult zebrafish; paired T-test, average distance to shoal, antagonist t(19) = 5.983, p = 9e-6
  Approach to shoal, acclimation vs test period: responded to the visual stimuli of a conspecific shoal
Adult zebrafish; pilot, 5 μg L-368,899 per gram fish
  Social preference, pilot experiment, 5 μg per gram fish: did not affect social preference
Adult zebrafish; pilot, 50 μg L-368,899 per gram fish
  Social preference, pilot experiment, 50 μg per gram fish: did not affect social preference
